{"source": "paper PMC7377239", "about": "“Cardiovascular Effects of Polychlorinated Biphenyls and Their Major Metabolites” (Environmental Health Perspectives, 2020)", "key": {"[1]": {"system": "iCell endothelial cells (human iPSC-derived ECs)", "assay": "High-content imaging cytotoxicity in iCell endothelial cells, 24 h", "type": "cell-based", "settings": "Homo sapiens, Endothelial cell, iPSC-EC; for viability at 0.1 µM / activity at 0.1 µM: 0.10 µM; for minimal effective concentration: 100.00 = highest concentration tested", "protocol": "The culture conditions of iCell®-endothelial cells were as reported elsewhere ([Iwata et al. 2017]). Briefly, T75 flasks were coated with a fibronectin solution ( 3 μg/cm^2 ) followed by incubation for 1–2 h. Cells were thawed for 3 min in a 37°C water bath. Thawed cells were added to maintenance medium made of VascuLife VEGF Medium Complete Kit, excluding the supplied FBS, and iCell® Endothelial Cells Medium Supplement. The final formulation of the maintenance medium is detailed in ([Iwata et al. 2017]). The aliquoted fibronectin solution was aspirated from the T75 flasks, and cells were seeded at 1.0×10^4 cells/cm^2 . Cells were maintained at 37°C and 5% CO2 with media changes occurring every 2 d and passaged every 3–4 d using TrypLE™ Express. All experiments were conducted on cells between passages 1 and 5.\nCytotoxicity was assessed in parallel experiments. For iCell®-endothelial cells, 384-well plates were coated with a 30μg/mL fibronectin solution ( 10μL/well ) and incubated for 2 h at RT. iCell®-endothelial cells were dissociated with TrypLE™ Express and prepared into a solution to achieve 750 cells per well and 50μL of total volume. The fibronectin solution was removed from the 384-well plate, and cells were plated. For HUVECs, similar dissociation and the same cell density were used for plating with the exclusion of the fibronectin solution. Cells were incubated at 37°C and 5% CO2 until a monolayer was formed, typically 3–5 d. 2×PCB plates were created with the requisite maintenance medium. Before treatment, the medium in the wells was exchanged to 25μL/well of fresh maintenance medium. 2×PCB chemical solutions ( […] ) were added. After 24 h incubation at 37°C and 5% CO2 , cells were stained with Hoechst 33342, MitoTracker™ Orange, and calcein AM for 20 min before replacing the staining media with FluoroBright DMEM. Cell culture plates were imaged using the ImageXpress® Micro Confocal high-content imaging system (Molecular Devices). Images were acquired at 10× magnification with DAPI, TRITC, or FITC filter (Hoechst 33342, MitoTracker™, or calcein AM, respectively). The multiwavelength cell scoring applications module in MetaXpress™ (Molecular Devices) was used to analyze the images.\n(§1) Phenotypic responses were quantitatively assessed using concentration–response modeling as detailed elsewhere ([Sirenko et al. 2017]). Briefly, phenotypic readouts were normalized to vehicle controls and fit to a four-parameter logistic model in R studio software (version 3.1.1; R Development Core Team). Following EPA guidance on dose–response modeling, a cutoff of one standard deviation across means of vehicle control (i.e., 0.5% vol/vol DMSO in cell culture media) wells was applied to determine the point-of-departure (POD) values ([U.S. EPA 2012]). In the absence of a concentration–response, the highest tested concentration (i.e., 100μM ) was assigned as “no observable adverse effect level.” The concentration–response assessment R script, as well as templates for vehicle and concentration–response data, are available as a supplement to Sirenko et al. ([2017]). The ability of physicochemical properties to predict differences in PODs were evaluated by multiregression and mixed-effects modeling using R."}, "[2]": {"system": "HUVECs", "assay": "Tube formation (tubulogenesis) assay in HUVECs, 18 h", "type": "cell-based, human", "settings": "Homo sapiens, HUVEC, 18 h, HUVECs tube formation; for activity at 0.01 µM: concentration 0.01 µM; for activity at 0.1 µM: concentration 0.10 µM; for activity at 1 µM: concentration 1.00 µM; for activity at 10 µM: concentration 10.00 µM; for activity at 100 µM: concentration 100.00 µM", "protocol": "Similar to the cultivation of iCell®-endothelial cells, HUVEC maintenance and experimentation are detailed elsewhere ([Iwata et al. 2017]). Briefly, HUVECs were thawed, seeded, and grown in T75 tissue culture flasks in Medium 199 with EGM™-2 BulletKits™. HUVECs were incubated at regular cell culture conditions, 37°C and 5% CO2 , and passaged every 2–3 d using TrypLE™ Express. To ensure adequate endothelial function, experiments were performed with cells between passages 1 and 5.\nTube formation assays were performed on Geltrex™ LDEV-free reduced growth factor basement membrane using both iCell®-endothelial cells and HUVECs in 384-well format exactly as detailed in Iwata et al. ([2017]). Negative controls included media-only and vehicle control (i.e., 0.5% vol/vol DMSO in cell culture media) wells. Positive assay controls were consistent with previously published reports ([Iwata et al. 2017]) and included TAB ( 50μM ) as a cytotoxic control, and nocodazole ( 0.01–1μM ), suramin ( 0.5–50μM ), histamine ( 0.1–100μM ), and chloroquine ( 1–500μM ) as chemicals associated with specific effects on ECs. Each test chemical was screened in triplicate for each concentration. Briefly, for iCell®-endothelial cells, starvation media consisted of VascuLife® basal medium with 4 mM L-glutamine LifeFactor and 0.1% iCell®-endothelial cells medium supplement. To counter dilution effects, a 2× concentration of the HUVEC maintenance medium supplemented with additional VEGF was created (EGM™-2 BulletKits™ at 2× concentration; also the VEGF component was replaced with 12.5 ng/mL VEGF). Geltrex™ LDEV-free reduced growth factor basement membrane was thawed overnight and dispensed into 384-well plates ( 10μL/well ) with tapping and rotating to evenly coat. The plates were incubated for 1 h in a cell culture incubator at 37°C and 5% CO2 . A 2× PCB plate (containing all of the PCBs and metabolites in dose–response) was prepared in basal media and added, 25μL per well, to the Geltrex™ coated plates. On separate plates, cells were seeded 7,500 (iPSC- ECs) or 3,500 (HUVEC) cells/well. Cells were exposed to chemicals overnight at 37°C and 5% CO2 and stained with 3× concentration of calcein AM ( 25μL /well, 6μmol/L ) for 15 min before imaging. Images were captured at 4× magnification with the FITC filter (calcein AM). Images were analyzed with the angiogenesis module software within MetaXpress™ (Molecular Devices).\nas §1"}, "[3]": {"settings": "0.00 µM = 100.00, read-out: endo.cyto.24hr"}, "[4]": {"settings": "0.00 µM = 100.00, read-out: endo.mito.24hr"}, "[5]": {"settings": "0.00 µM = 100.00, read-out: endo.mitoint.24hr"}, "[6]": {"settings": "0.00 µM = 100.00, read-out: endo.nma.24hr"}, "[7]": {"settings": "0.00 µM = 100.00, read-out: endo.tc.24hrs"}, "[8]": {"settings": "0.00 µM = 100.00, read-out: huvec.mtl.18hr"}, "[9]": {"settings": "0.00 µM = 100.00, read-out: huvec.tlps.18hr"}, "[10]": {"settings": "0.00 µM = 100.00, read-out: huvec.tta.18hr"}, "[11]": {"settings": "0.00 µM = 100.00, read-out: huvec.ttl.18hr"}}, "note": "Read-outs that look alike come from different tables or passages of the source.", "data": [{"compound": "Clc1ccc(Cl)c(-c2c(Cl)ccc(Cl)c2Cl)c1", "note": "[PCB95]", "values": [{"measurement": "viability at 0.01 µM", "setting": "[1]; [3]", "value": 96.8, "unit": "%"}, {"measurement": "activity at 0.01 µM", "setting": "[1]; [4]", "value": 96.7, "unit": "%"}, {"measurement": "activity at 0.01 µM", "setting": "[1]; [5]", "value": 93.2, "unit": "%"}, {"measurement": "activity at 0.01 µM", "setting": "[1]; [6]", "value": 103, "unit": "%"}, {"measurement": "viability at 0.01 µM", "setting": "[1]; [7]", "value": 96.8, "unit": "%"}, {"measurement": "viability at 0.1 µM", "setting": "[1]; [3]", "value": 102, "unit": "%"}, {"measurement": "activity at 0.1 µM", "setting": "[1]; [4]", "value": 102, "unit": "%"}, {"measurement": "activity at 0.1 µM", "setting": "[1]; [5]", "value": 87.2, "unit": "%"}, {"measurement": "activity at 0.1 µM", "setting": "[1]; [6]", "value": 104, "unit": "%"}, {"measurement": "viability at 0.1 µM", "setting": "[1]; [7]", "value": 102, "unit": "%"}, {"measurement": "viability at 1 µM", "setting": "[1]; [3]", "value": 105, "unit": "%"}, {"measurement": "activity at 1 µM", "setting": "[1]; [4]", "value": 106, "unit": "%"}, {"measurement": "activity at 1 µM", "setting": "[1]; [5]", "value": 84.4, "unit": "%"}, {"measurement": "activity at 1 µM", "setting": "[1]; [6]", "value": 98.6, "unit": "%"}, {"measurement": "viability at 1 µM", "setting": "[1]; [7]", "value": 105, "unit": "%"}, {"measurement": "viability at 10 µM", "setting": "[1]; [3]", "value": 104, "unit": "%"}, {"measurement": "activity at 10 µM", "setting": "[1]; [4]", "value": 104, "unit": "%"}, {"measurement": "activity at 10 µM", "setting": "[1]; [5]", "value": 93.9, "unit": "%"}, {"measurement": "activity at 10 µM", "setting": "[1]; [6]", "value": 100, "unit": "%"}, {"measurement": "viability at 10 µM", "setting": "[1]; [7]", "value": 104, "unit": "%"}, {"measurement": "viability at 100 µM", "setting": "[1]; [3]", "value": 102, "unit": "%"}, {"measurement": "activity at 100 µM", "setting": "[1]; [4]", "value": 103, "unit": "%"}, {"measurement": "activity at 100 µM", "setting": "[1]; [5]", "value": 93.6, "unit": "%"}, {"measurement": "activity at 100 µM", "setting": "[1]; [6]", "value": 97.4, "unit": "%"}, {"measurement": "viability at 100 µM", "setting": "[1]; [7]", "value": 102, "unit": "%"}, {"measurement": "minimal effective concentration", "setting": "[1]; read-out: endo.cyto.24hr POD", "value": 100, "unit": "µM"}, {"measurement": "minimal effective concentration", "setting": "[1]; read-out: endo.mito.24hr POD", "value": 100, "unit": "µM"}, {"measurement": "minimal effective concentration", "setting": "[1]; read-out: endo.mitoint.24hr POD", "value": 100, "unit": "µM"}, {"measurement": "minimal effective concentration", "setting": "[1]; read-out: endo.nma.24hr POD", "value": 100, "unit": "µM"}, {"measurement": "minimal effective concentration", "setting": "[1]; read-out: endo.tc.24hrs POD", "value": 100, "unit": "µM"}, {"measurement": "minimal effective concentration", "setting": "[2]; MAX 100.00, read-out: huvec.mtl.18hr POD", "value": 8.29, "unit": "µM"}, {"measurement": "minimal effective concentration", "setting": "[2]; MAX 100.00, read-out: huvec.tlps.18hr POD", "value": 100, "unit": "µM"}, {"measurement": "minimal effective concentration", "setting": "[2]; MAX 100.00, read-out: huvec.tta.18hr POD", "value": 100, "unit": "µM"}, {"measurement": "minimal effective concentration", "setting": "[2]; MAX 100.00, read-out: huvec.ttl.18hr POD", "value": 100, "unit": "µM"}, {"measurement": "activity at 0.01 µM", "setting": "[2]; [8]", "value": 96.9, "unit": "%"}, {"measurement": "activity at 0.01 µM", "setting": "[2]; [9]", "value": 80.5, "unit": "%"}, {"measurement": "activity at 0.01 µM", "setting": "[2]; [10]", "value": 75.1, "unit": "%"}, {"measurement": "activity at 0.01 µM", "setting": "[2]; [11]", "value": 63, "unit": "%"}, {"measurement": "activity at 0.1 µM", "setting": "[2]; [8]", "value": 82.7, "unit": "%"}, {"measurement": "activity at 0.1 µM", "setting": "[2]; [9]", "value": 88.7, "unit": "%"}, {"measurement": "activity at 0.1 µM", "setting": "[2]; [10]", "value": 71.1, "unit": "%"}, {"measurement": "activity at 0.1 µM", "setting": "[2]; [11]", "value": 63.9, "unit": "%"}, {"measurement": "activity at 1 µM", "setting": "[2]; [8]", "value": 104, "unit": "%"}, {"measurement": "activity at 1 µM", "setting": "[2]; [9]", "value": 86.3, "unit": "%"}, {"measurement": "activity at 1 µM", "setting": "[2]; [10]", "value": 78.7, "unit": "%"}, {"measurement": "activity at 1 µM", "setting": "[2]; [11]", "value": 68.7, "unit": "%"}, {"measurement": "activity at 10 µM", "setting": "[2]; [8]", "value": 87.4, "unit": "%"}, {"measurement": "activity at 10 µM", "setting": "[2]; [9]", "value": 88.9, "unit": "%"}, {"measurement": "activity at 10 µM", "setting": "[2]; [10]", "value": 84, "unit": "%"}, {"measurement": "activity at 10 µM", "setting": "[2]; [11]", "value": 79.8, "unit": "%"}, {"measurement": "activity at 100 µM", "setting": "[2]; [8]", "value": 72.8, "unit": "%"}, {"measurement": "activity at 100 µM", "setting": "[2]; [9]", "value": 64.1, "unit": "%"}, {"measurement": "activity at 100 µM", "setting": "[2]; [10]", "value": 68.8, "unit": "%"}, {"measurement": "activity at 100 µM", "setting": "[2]; [11]", "value": 61.4, "unit": "%"}]}]}
